Earlier results on 1 substance are cited in publication PMC8917853, “Synthesis and evaluation of ^99mTc-DOTA-ARA-290 as potential SPECT tracer for targeting cardiac ischemic region” (Iranian Journal of Basic Medical Sciences, 2021).

The conditions of series [1]: cited from earlier work. From the text: Myocardial infarction, the most prominent cardiovascular disease outcome (CVD), is the main reason for morbidity and death in the world ([1]). Immediate and precise diagnosis of cardiac hypoxia and ischemia is very critical and crucial for appropriate treatment and prevention of myocardial damage ([2]). Evaluation of cardiac ischemic biomarkers in blood plasma, including Creatine Kinase-MB, cardiac troponin, and lactate dehydrogenase (LDH) is valuable for diagnosis; however, their levels increase in blood after a delay of time ([3]).

The conditions of series [2]: metabolic stability; 41 (Yang et al.); cited from earlier work. From the text: Myocardial SPECT imaging as a nuclear cardiological scan has been used in many procedures for ischemic heart diseases ([36]). In the mid-1970s, […]-201 (201TI) imaging has been used to ascertain regional myocardial perfusion models at rest, stress, and acute myocardial infarction, but because of the concerns about medical exposure to ionizing radiation and lower image quality, ^201Tl was substituted by ^99mTc-labeled perfusion agents (^99mTc-sestamibi and ^99mTc-tetrofosmin). However, these SPECT agents show poor pharmacokinetic features with reducing uptake with higher flows ([37], [38]) ...

Like-named read-outs stand apart in the source and are kept apart here. Non-standard residues stand in square brackets, D forms with d. pGlu = O=C1CC[C@@H](C(=O)O)N1

“[pGlu]EQLERALNSS-OH [ARA-290, 11 amino acid nonhematopoietic peptide derived from helix B of EPO]”: the half-life result in series [1] (in rabbits) and in series [1] (in rats) was “roughly 2 min” in each case. Further, the in vivo stability in series [2] is recorded as 2 min.
